# Columns and labels:
# Cbl-b [1] = target: T1, Cbl-b (Homo sapiens, UniProt Q13191); assay: Cbl-b inhibition assay (Cbl-b activity assay, FRET, Biological Example 1; 100 mM NaCl, 60 nM Src kinase); type: biochemical; conditions: upper bound stated in text lists; read-out: IC50 values in the Cbl-b inhibition assay of Biological Example 1
# In short: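 Inhibitor activity is measured as reduced terbium-to-fluorescein FRET between streptavidin-terbium on biotinylated Cbl-b and Bodipy-fluorescein ubiquitin carried by an irreversible UbcH5B-Ub conjugate, binding of which depends on Src phosphorylation of Cbl-b.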
# Cbl-b [2] = target: T1, Cbl-b; assay: Cbl-b activity assay (Cbl-b inhibition assay), TR-FRET of Cbl-b interaction with UbcH5B-Ub; type: biochemical
# In short: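 UbcH5B (C85K) conjugated to N-terminally Bodipy-Fluorescein-labeled ubiquitin served as the fluorescent partner. After compound preincubation, Src kinase (60 nM) with 1 mM ATP and 5 mM MgCl2 (final) was added for 1.5 h, followed by a further 1 h incubation. Some values were obtained with 50 mM NaCl and 30 nM Src.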
# Cbl-b (residues 36-427) = Cbl-b (residues 36-427) (Homo sapiens, UniProt Q13191); assay: Cbl-b binding assay (SPR, Biacore T200); conditions: 20° C., 1:1 binding model
# Cbl-b (residues 36-427), sequence (Q13191 36-427): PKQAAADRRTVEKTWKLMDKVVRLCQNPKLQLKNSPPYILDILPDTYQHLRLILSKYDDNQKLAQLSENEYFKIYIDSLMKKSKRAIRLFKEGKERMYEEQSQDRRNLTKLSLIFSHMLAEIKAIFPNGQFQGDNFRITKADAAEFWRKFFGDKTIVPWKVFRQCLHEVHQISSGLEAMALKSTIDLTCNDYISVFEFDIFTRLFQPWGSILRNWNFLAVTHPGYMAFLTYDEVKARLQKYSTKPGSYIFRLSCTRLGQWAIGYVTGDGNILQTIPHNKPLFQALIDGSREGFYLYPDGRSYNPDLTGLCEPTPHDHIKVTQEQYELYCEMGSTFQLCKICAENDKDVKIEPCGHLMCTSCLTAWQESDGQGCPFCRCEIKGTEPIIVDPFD
# Description: SPR data was collected on a Biacore T200 (GE Healthcare) using a NeutrAvidin (Invitrogen) capture surface that was generated on a polycarboxylate hydrogel sensor chip of medium charge density (XanTec Bioanalytics GmbH) at 20° C. The surface was prepared using 20 mM HEPES, pH 7.5, 100 mM NaCl, 0.5 mM TCEP, 0.01% Triton X-100 as the immobilization buffer. Neutravidin was coupled to the sensor chip through EDC/NHS amine coupling. All steps were performed using a flow rate of 10 μl/min. First, the chip was preconditioned with a 3-min injection of 1 M NaCl, 0.1 M Borate followed by a 10-min equilibration in immobilization buffer. The surface was activated by a 5-min injection of 100 mM EDC/50 mM NHS. Next, 250 μg/mL NeutrAvidin buffered in 10 mM sodium acetate buffer, pH 5.0 was injected over the surface for 2 min. The surface was deactivated with 1 M Tris, pH 8.5 for 7 min then re-equilibrated in immobilization buffer for 7 min. […] Flow cell 1 served as a reference surface and was prepared without protein. All binding measurements were made in 20 mM HEPES, pH 7.5, 100 mM NaCl, 0.5 mM TCEP, 0.01% Triton X-100, 2% DMSO (referred as assay buffer) at 20° C. Compounds, prepared in assay buffer, were diluted from atop concentration of either 100 μM or 50 μM using either a 2- or 3-fold dilution scheme containing 8 or 10 points. Samples were injected for 50 s at 50 μl/min. Dissociation time varied from 90-180 s, depending on anticipated potency. The surface was regenerated by injection of 0.3 M NaCl, prepared in assay buffer for 20 s at 10 μl/min. Positive and negative control samples were run between each compound to monitor surface integrity.
# Column marked with an asterisk (*) were tested as described above with assay buffer containing 50 mM NaCl instead of 100 mM NaCl and 30 nM Src kinase instead of 60 nM Src kinase. The resulting data for the Cbl-b binding assay was solvent corrected and double referenced prior to analysis. All data were globally fit to a steady-state affinity and kinetic binding model where applicable). Fit parameters were derived from a 1:1 binding model using the Biacore T200 Evaluation Software V2.0 (GE Healthcare) (Table 2).
# [3] = * assay buffer containing 50 mM NaCl instead of 100 mM NaCl and 30 nM Src kinase instead of 60 nM, read-out: Cbl-b activity IC50 (μM)*
# [4] = assay buffer with 100 mM NaCl, 60 nM Src kinase, read-out: Cbl-b activity IC50
# T1 sequence (Q13191 36-427): as above
SMILES,IC50 (Cbl-b [1]),IC50 (Cbl-b [2]; [3]),IC50 (Cbl-b [2]; [4]),Kd (Cbl-b (residues 36-427))
"CC(Sc1nncn1C)c1cccc(NC(=O)c2ccc3c(n2)CCCC3)c1 (stereo not drawn) [Compound 23, N-(3-(1-((4-Methyl-4H-1,2,4-triazol-3-yl)thio)ethyl)phenyl)-5,6,7,8-tetrahydroquinoline-2-carboxamide]",≤ 10 µM,1 to 3 µM,1 to 3 µM,3 to 10 µM
"Cc1cc(C(=O)Nc2cccc([C@H](C)Sc3nncn3C)c2)ncc1Cl [Compound 34, (S)-5-Chloro-4-methyl-N-(3-(1-((4-methyl-4H-1,2,4-triazol-3-yl)thio)ethyl)phenyl)picolinamide]",≤ 0.5 µM,0.301 to 1 µM,0.301 to 1 µM,1 to 3 µM
"C[C@H](Sc1nncn1C)c1cccc(NC(=O)c2cc(C(F)(F)F)c(Cl)cn2)c1 [Compound 40, (S)-5-Chloro-N-(3-(1-((4-methyl-4H-1,2,4-triazol-3-yl)thio)ethyl)phenyl)-4-(trifluoromethyl)picolinamide]",≤ 10 µM,3 to 10 µM,1 to 3 µM,3 to 10 µM
"Cc1nc(C(=O)Nc2cccc([C@H](C)Sc3nncn3C)c2)cs1 [Compound 41, (S)-2-Methyl-N-(3-(1-((4-methyl-4H-1,2,4-triazol-3-yl)thio)ethyl)phenyl)thiazole-4-carboxamide]",≤ 10 µM,–,1 to 3 µM,1 to 3 µM
"C[C@H](Sc1nncn1C)c1cccc(NC(=O)c2cccc(C(F)(F)F)c2F)c1 [Compound 42, (S)-2-Fluoro-N-(3-(1-((4-methyl-4H-1,2,4-triazol-3-yl)thio)ethyl)phenyl)-3-(trifluoromethyl)benzamide]",≤ 1 µM,–,0.301 to 1 µM,0.301 to 1 µM
"COc1c(C(=O)Nc2cccc([C@H](C)Sc3nncn3C)c2)cccc1C(F)(F)F [Compound 43, (S)-2-Methoxy-N-(3-(1-((4-methyl-4H-1,2,4-triazol-3-yl)thio)ethyl)phenyl)-3-(trifluoromethyl)benzamide]",≤ 10 µM,–,3 to 10 µM,> 10 µM
"C[C@H](Sc1nncn1C)c1cccc(NC(=O)c2cccc(-c3ccn[nH]3)c2)c1 [Compound 44, (S)-N-(3-(1-((4-Methyl-4H-1,2,4-triazol-3-yl)thio)ethyl)phenyl)-3-(1H-pyrazol-5-yl)benzamide]",≤ 10 µM,–,3 to 10 µM,3 to 10 µM
"C[C@H](Sc1nncn1C)c1cccc(NC(=O)c2cccc(-c3ccnn3C)c2)c1 [Compound 45, 3-(1-Methyl-1H-pyrazol-5-yl)-N-[3-[(1S)-1-[(4-methyl-4H-1,2,4-triazol-3-yl)sulfanyl]ethyl]phenyl]benzamide]",≤ 10 µM,–,3 to 10 µM,3 to 10 µM
"C[C@H](Sc1nncn1C)c1cccc(NC(=O)c2cc(CCO)ccn2)c1 [Compound 46, (S)-4-(2-Hydroxyethyl)-N-(3-(1-((4-methyl-4H-1,2,4-triazol-3-yl)thio)ethyl)phenyl)picolinamide]",≤ 10 µM,–,1 to 3 µM,3 to 10 µM
"CNc1cccc(C(=O)Nc2cccc([C@H](C)Sc3nncn3C)c2)c1 [Compound 47, (S)-N-(3-(1-((4-Methyl-4H-1,2,4-triazol-3-yl)thio)ethyl)phenyl)-3-(methylamino)benzamide]",≤ 10 µM,–,3 to 10 µM,3 to 10 µM
"C[C@H](Sc1nncn1C)c1cccc(NC(=O)c2nc(C(F)(F)F)ccc2N)c1 [Compound 49, (S)-3-Amino-N-(3-(1-((4-methyl-4H-1,2,4-triazol-3-yl)thio)ethyl)phenyl)-6-(trifluoromethyl)picolinamide]",≤ 10 µM,–,1 to 3 µM,1 to 3 µM
"Cc1cc(C(=O)Nc2cccc([C@H](C)Sc3nncn3C)c2)[nH]c(=O)c1 [Compound 50, (S)-4-Methyl-N-(3-(1-((4-methyl-4H-1,2,4-triazol-3-yl)thio)ethyl)phenyl)-6-oxo-1,6-dihydropyridine-2-carboxamide]",≤ 10 µM,–,3 to 10 µM,> 10 µM
"Cc1cnc(C(=O)Nc2cccc([C@H](C)Sc3nncn3C)c2)cc1C(F)(F)F [Compound 52, (S)-5-methyl-N-(3-(1-((4-methyl-4H-1,2,4-triazol-3-yl)thio)ethyl)phenyl)-4-(trifluoromethyl)picolinamide]",≤ 10 µM,–,3 to 10 µM,> 10 µM
"Cc1cnc(C(=O)Nc2cccc([C@H](C)Sc3nncn3C)c2)cc1C1CC1 [Compound 53, (S)-4-cyclopropyl-5-methyl-N-(3-(1-((4-methyl-4H-1,2,4-triazol-3-yl)thio)ethyl)phenyl)picolinamide]",≤ 10 µM,–,3 to 10 µM,3 to 10 µM
"CC(=O)Nc1ccnc(C(=O)Nc2cccc([C@H](C)Sc3nncn3C)c2)c1 [Compound 59, (S)-4-acetamido-N-(3-(1-((4-methyl-4H-1,2,4-triazol-3-yl)thio)ethyl)phenyl)picolinamide]",≤ 10 µM,–,1 to 3 µM,3 to 10 µM
"CNc1ccnc(C(=O)Nc2cccc([C@H](C)Sc3nncn3C)c2)c1 [Compound 60, (S)-N-(3-(1-((4-methyl-4H-1,2,4-triazol-3-yl)thio)ethyl)phenyl)-4-(methylamino)picolinamide]",≤ 10 µM,–,1 to 3 µM,3 to 10 µM
"C[C@H](Sc1nncn1C)c1cccc(NC(=O)c2cc(C(F)(F)F)cc(Cl)n2)c1 [Compound 66, (S)-6-chloro-N-(3-(1-((4-methyl-4H-1,2,4-triazol-3-yl)thio)ethyl)phenyl)-4-(trifluoromethyl)picolinamide]",≤ 10 µM,–,1 to 3 µM,3 to 10 µM
"COc1cc(C(F)(F)F)cc(C(=O)Nc2cccc([C@H](C)Sc3nncn3C)c2)n1 [Compound 73, (S)-6-methoxy-N-(3-(1-((4-methyl-4H-1,2,4-triazol-3-yl)thio)ethyl)phenyl)-4-(trifluoromethyl)picolinamide]",≤ 10 µM,–,1 to 3 µM,3 to 10 µM
"C[C@H](Sc1nncn1C)c1cccc(NC(=O)c2nc(C(F)(F)F)cs2)c1 [Compound 74, N-[3-[(1 S)-1-[(4-methyl-1,2,4-triazol-3-yl)sulfanyl]ethyl]phenyl]-4-(trifluoromethyl)thiazole-2-carboxamide]",≤ 1 µM,–,0.301 to 1 µM,1 to 3 µM
"C[C@H](Sc1nncn1C)c1cccc(NC(=O)c2cccc(OC(F)(F)F)c2)c1 [Compound 79, (S)-N-(3-(1-((4-methyl-4H-1,2,4-triazol-3-yl)thio)ethyl)phenyl)-3-(trifluoromethoxy)benzamide]",≤ 10 µM,–,3 to 10 µM,3 to 10 µM
"Cc1cncc(C(=O)Nc2cccc([C@H](C)Sc3nncn3C)c2)n1 [Compound 82, (S)-6-methyl-N-(3-(1-((4-methyl-4H-1,2,4-triazol-3-yl)thio)ethyl)phenyl)pyrazine-2-carboxamide]",≤ 10 µM,–,1 to 3 µM,3 to 10 µM
"C[C@H](Sc1nncn1C)c1cccc(NC(=O)c2cc3ccc(OCC(=O)O)cc3cn2)c1 [Compound 308, (S)-2-((3-((3-(1-((4-methyl-4H-1,2,4-triazol-3-yl)thio)ethyl)phenyl)carbamoyl)isoquinolin-7-yl)oxy)acetic acid]",–,–,1 to 3 µM,3 to 10 µM
"C[C@H](Sc1nncn1C)c1cccc(NC(=O)c2ccc3c(OCC(=O)O)cccc3n2)c1 [Compound 309, (S)-2-(2-(3-(1-(4-methyl-4H-1,2,4-triazol-3-ylthio)ethyl)phenylcarbamoyl)quinolin-5-yloxy)acetic acid]",–,–,1 to 3 µM,3 to 10 µM
"CNC(=O)COc1cccc2nc(C(=O)Nc3cccc([C@H](C)Sc4nncn4C)c3)ccc12 [Compound 310, (S)-N-(3-(1-((4-methyl-4H-1,2,4-triazol-3-yl)thio)ethyl)phenyl)-5-(2-(methylamino)-2-oxoethoxy)quinoline-2-carboxamide]",–,–,0.301 to 1 µM,0.301 to 1 µM

# Reference: patent US20220324835A1 (Nurix Therapeutics, Inc., priority 2018, published 2022)
